Laboratory results from article PMC7366380, “Discovery of a Potent and Selective Covalent Inhibitor and Activity-Based Probe for the Deubiquitylating Enzyme UCHL1, with Antifibrotic Activity” (Journal of the American Chemical Society, 2020).
Several values for one entry are separate records, joined by “and”; a condition that tells them apart may be missing. Identical values can stand only once. Entries after “also recorded” stand apart in the source; their conditions may differ.

Experiments:
FGFR2 = FGFR2 (Homo sapiens, UniProt P21802); assay: In-cell proteome-wide competitive ABPP, HEK293: FGFR2; details: HEK293, compound 60 min, then 2 (20 nM) 10 min
Sequence of FGFR2 (P21802 22-821): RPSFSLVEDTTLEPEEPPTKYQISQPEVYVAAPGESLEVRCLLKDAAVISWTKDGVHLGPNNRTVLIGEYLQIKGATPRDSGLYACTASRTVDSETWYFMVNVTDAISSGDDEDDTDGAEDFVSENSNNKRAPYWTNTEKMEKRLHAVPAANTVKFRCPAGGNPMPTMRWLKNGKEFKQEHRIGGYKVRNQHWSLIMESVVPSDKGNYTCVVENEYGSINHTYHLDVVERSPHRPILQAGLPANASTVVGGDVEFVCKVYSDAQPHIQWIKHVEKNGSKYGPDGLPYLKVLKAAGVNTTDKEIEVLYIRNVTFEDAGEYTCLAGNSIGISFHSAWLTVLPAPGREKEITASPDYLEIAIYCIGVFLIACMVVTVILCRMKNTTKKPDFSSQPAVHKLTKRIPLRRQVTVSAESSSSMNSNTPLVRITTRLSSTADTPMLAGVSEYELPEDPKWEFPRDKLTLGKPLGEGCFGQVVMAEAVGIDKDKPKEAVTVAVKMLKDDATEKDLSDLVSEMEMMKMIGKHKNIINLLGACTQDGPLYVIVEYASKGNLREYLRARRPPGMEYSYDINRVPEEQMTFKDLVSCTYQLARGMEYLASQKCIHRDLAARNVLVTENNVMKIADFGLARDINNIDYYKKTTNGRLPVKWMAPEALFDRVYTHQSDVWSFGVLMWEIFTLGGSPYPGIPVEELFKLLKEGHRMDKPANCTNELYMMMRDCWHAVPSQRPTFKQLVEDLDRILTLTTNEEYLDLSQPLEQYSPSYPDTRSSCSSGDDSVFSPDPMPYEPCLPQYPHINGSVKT

UCHL1 [1] = biological target: T1, UCHL1 (Homo sapiens, UniProt P09936); assay: UCHL1 covalent adduct site identification (tryptic digest, nanoLC-MS/MS, PEAKS); format: binding; parameters: (residues 1-223, Uniprot P09936); GST (N, cleaved yes); made in house; host or cells: E. coli Rosetta 2(DE3), pGEX-6P-1; details: for site of UCHL1 modification: UCHL1 5 μM, compound 13 μM, 1 h, tryptic digest
T1 sequence (P09936 1-223): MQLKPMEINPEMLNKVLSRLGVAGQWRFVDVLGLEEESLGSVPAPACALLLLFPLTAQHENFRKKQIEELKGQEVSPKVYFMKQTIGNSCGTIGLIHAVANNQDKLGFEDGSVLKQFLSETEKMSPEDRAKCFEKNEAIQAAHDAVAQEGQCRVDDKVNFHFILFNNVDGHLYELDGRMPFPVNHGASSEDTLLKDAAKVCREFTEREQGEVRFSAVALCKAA
Experimental: b) 2 modification: 96% peptide sequence coverage
Figure S9. Identification of modification sites by nanoLC-MS/MS.
Recombinant UCHL1 (5 µM) was incubated with compound 1 or 2 (13 µM) for 1 h at room temperature. The labeled protein was digested with trypsin and analyzed by nanoLC-MS/MS.
The data was processed in PEAKS 8.0. 82% and 96% of UCHL1 peptide sequence coverage for (a) 1, or (b) 2 modification, respectively. The high confidence modification of compound 1 […]
Statistical data and peptide lists from PEAKS are detailed in Supplementary Data S1. […]
values were plotted against compound concentration to afford the apparent second order rate constant for inhibition, ka/I. The absolute value of the second order rate constant kobs/I was […]
Reversible inhibition assay: Jump dilution assays were performed by incubating UCHL1 […]
negative controls (iodoacetamide (IAA) 10 mM) for 30 min at room temperature. The reaction […]
intensity read immediately for 1 h.
UCHL1 covalent adduct determination […]
pH 7.5) was incubated with compound 1, 2 (2.5 equiv.) or DMSO for 1 h at room temperature.
The excess ligand was removed by washing with buffer D in an Amicon® Ultra MWCO 10 kDa centrifugation spin filter three times. The protein-adducts were desalted using 3× SDB-XC polystyrene-divinylbenzene copolymer extraction disks, following published methods.5 Samples were eluted with 50% (v/v) MeCN 0.5% (v/v) formic acid in LC-MS grade water and analyzed by LC-ESI (ACQUITY UPLC H-Class PLUS instrument (Waters)) using an ACQUITY UPLC BEH C4 column (Waters) coupled with Waters LCT Premier MS detector.
UCHL1 covalent adduct site identification
Compound-protein adduct samples were prepared as described above and digested with trypsin (Promega, 1:50 trypsin:UCHL1 ratio) at 37 °C, overnight. […]
The MS data was analyzed by PEAKS Studio 8.5 (Bioinformatics Solutions Inc.). […]
Homogeneous time resolved fluorescence (HTRF) assay […]
BME) and incubated for 30 min at room temperature. […] The plates were sealed and incubated overnight at 4 °C then read using a PHERAstar (BMG), and the Delta F calculated: […]

EIF3F = EIF3F (Homo sapiens, UniProt O00303); assay: Quantitative chemical proteomic profiling of ABP 2 in HEK293 cells: EIF3F; details: for Log2 reporter intensity values (Log2FC, DMSO substract): EIF3F, listed as ABP 2
[2] = system: UCHL3, UCHL5, and DUBs from other families; assay: ABP 2 labeling in HEK293 cells, pulldown and immunoblotting of other DUBs; details: HEK293, 1 h, pulldown, immunoblot
UCHL1 [3] = biological target: T1, UCHL1; assay: Quantitative chemical proteomic profiling of ABP 2 in HEK293 cells (AzRB enrichment, TMT): UCHL1; details: for Log2 reporter intensity values (Log2FC, DMSO substract): UCHL1, listed as ABP 2
UCHL1 [4] = biological target: T1, UCHL1; details: compared with 1
in vitro = details: human
[5] = 200 nM, 180 min, replicates A,C
[6] = HEK293, 20 nM vs DMSO, 1 h, enrichment, TMT, n=3
[7] = HEK293, 200 nM vs DMSO, 1 h, enrichment, TMT, n=3

With `N#CN1CCC[C@H]1C(=O)N1CCc2c(-c3c[nH]c4ncccc34)cccc21` [Compound 1] the “FGFR2 response in proteome-wide competitive ABPP” value (FGFR2) was “responds” and the “site of UCHL1 modification” value (UCHL1 [1]) was “catalytic cysteine 90; also recorded: catalytic cysteine (Cys90)”.

For `C#Cc1cnc2[nH]cc(-c3cccc4c3CCN4C(=O)[C@@H]3CCCN3C#N)c2c1` [Compound 2], the “Log2 reporter intensity values (Log2FC, DMSO substract)” value (shortened to “Log2 reporter intensity values”) (EIF3F; 2 nM, 60 min, replicates A-C) was 0.2006 and 0.08743 and 0.3363, the “Log2 reporter intensity values” value (EIF3F; 20 nM, 10 min, replicates B,C) was 0.2292 and 0.2562 and the “Log2 reporter intensity values” value (EIF3F; 20 nM, 60 min, replicates A-C) was 0.2037 and 0.07421 and -0.06904. The “Log2 reporter intensity values” value (EIF3F; 20 nM, 180 min, replicates A-C) was 0.329 and 0.1016 and 0.09094, the “Log2 reporter intensity values” value (EIF3F; 200 nM, 10 min, replicates B,C) was 0.1208 and 0.2271 and the “Log2 reporter intensity values” value (EIF3F; 200 nM, 60 min, replicates A-C) was 0.222 and -0.03463 and 0.3157. For the same compound, the “Log2 reporter intensity values” value (EIF3F; [5]) was 0.2814 and 0.1468, the “Log2 t-test Difference, EIF3F, 20 nM” value (EIF3F; [6]) was 0.06962 and the “Log2 t-test Difference, EIF3F, 200 nM” value (EIF3F; [7]) was 0.1677. For the same compound, the “labeling of UCHL3, UCHL5, and DUBs from other families” value [2] was “minimal or no detectable labeling”, the “Log2 t-test Difference, UCHL1, 2 nM” value (UCHL1 [3]; HEK293, 2 nM vs DMSO, 1 h, enrichment, TMT, n=3) was 1.208 and the “Log2 t-test Difference, UCHL1, 20 nM” value (UCHL1 [3]; [6]) was 2.871. The “Log2 t-test Difference, UCHL1, 200 nM” value (UCHL1 [3]; [7]) was 3.757, the “UCHL1 enrichment (chemical proteomics)” value (UCHL1 [3]; HEK293, 2, 20 or 200 nM, 10, 60 or 180 min) was “significantly enriched” and the “Log2 reporter intensity values” value (UCHL1 [3]; 2 nM, 60 min, replicates A-C) was 1.19 and 1.075. The “Log2 reporter intensity values” value (UCHL1 [3]; 20 nM, 10 min, replicates B,C) was 2.249 and 2.237, the “Log2 reporter intensity values” value (UCHL1 [3]; 20 nM, 60 min, replicates A-C) was 3.049 and 2.943 and 2.622 and the “Log2 reporter intensity values” value (UCHL1 [3]; 20 nM, 180 min, replicates A-C) was 2.8835 and 2.817 and 2.539. The “Log2 reporter intensity values” value (UCHL1 [3]; 200 nM, 10 min, replicates B,C) was 3.8701 and 3.284, the “Log2 reporter intensity values” value (UCHL1 [3]; 200 nM, 60 min, replicates A-C) was 3.775 and 4.082 and 3.414 and the “Log2 reporter intensity values” value (UCHL1 [3]; [5]) was 3.588 and 3.369. For the same compound, the “site of UCHL1 modification” value (UCHL1 [1]) was “catalytic cysteine 90; also recorded: catalytic cysteine (Cys90)” and the “Peptide carrying the compound 2 modification (C, +381.16)” value (UCHL1 [1]; recombinant UCHL1 (P09936) treated with compound 2, tryptic digest, PEAKS, PTM code n = Compound 2 modification (C)) was “QTIGNSC(+381.16)GTIGLIHAVANNQDKLGFEDGSVLK; also recorded: QTIGNSC(+381.16)GTIGLIHAVANNQDK; also recorded: QTIGNSC(+381.16)GTIGLIHAVANNQDKLGFEDGSVLKQFLSETEK”.

With `N#CN1CCC[C@@H]1C(=O)N1CCc2c(-c3c[nH]c4ncccc34)cccc21` [Compound 3] the “fold less active than 1 (UCHL1 FP assay)” value (UCHL1 [4]) was greater than 1000 fold.

For `CC(=O)O/N=C1\C(=O)N(Cc2cc(Cl)ccc2Cl)c2ccc(Cl)cc21` [LDN-57444, reference compound], the EC50 at 3 days (in vitro) was roughly 9.2 µM.
